Test results published in US4407796A, “Modulators of the complement system” (American Cyanamid Company, priority 1981, dated 1983).
Counter-ions that a name gives are not always drawn.

What was measured:
activated human C1 = activated human C1 (Homo sapiens, UniProt P09871); test: Test Code 026 (C1 inhibitor); assay type: biochemical; details: serial twofold dilution assay; higher well number indicates higher activity
Description: (§1) An active inhibitor protects C2 from C1 and C4; (ii) Test Code 035 (C3-C9 inhibitor)--This test determines the ability of the late components of human complement (C3-C9) to lyse EAC 142 in the presence of appropriate dilutions of the test compound. An active inhibitor protects EAC 142 from lysis by human C3-C9; (iii) Cap 50 Test--Here, appropriate amounts of the test compound are added to a pool of guinea pig or human serum in vitro, after which the undiluted serum capillary tube assay of U.S. Pat. No. 3,876,376 is run. The concentration of compound inhibiting 50% is reported; and (iv) Guinea Pig Intraperitoneal Test (GPIP)--Guinea pigs weighing about 300 g are dosed intraperitoneally (i.p.) with 200 mg/kg of the test compound dissolved in saline and adjusted to pH 7-8. Approximately 0.4 ml blood samples, taken by orbital sinus puncture 2 hours and 6 hours after injections, are collected directly into centrifuge tubes; 5 ml blood samples, taken by decapitation 24 hours after injection, are collected directly into beakers. The samples are allowed to clot, centrifuged, and the resultant sera are assayed for complement activity using the capillary complement assay. Percent inhibition is calculated by comparison with simultaneous controls. The results of the GPIP appear in Table I together with results of Test Code 026, 035 and Cap 50.

[1] = system: late components of human complement (C3-C9); test: Test Code 035 (C3-C9 inhibitor), lysis of EAC 142; assay type: biochemical; details: serial twofold dilution assay; higher well number indicates higher activity
Description: as §1

human serum complement = details: both in vitro and in vivo; cited from earlier work

Molecule	C1 026 Wells (activated human C1) [Wells]	C-Late 035 Wells [1] [Wells]	anticomplementary activity, judged by reduction in total hemolytic complement activity (human serum complement)
O=S(=O)(O)OC[C@H]1O[C@@H](Sc2cccc(S[C@@H]3O[C@H](COS(=O)(=O)O)[C@@H](O[C@H]4O[C@H](COS(=O)(=O)O)[C@@H](OS(=O)(=O)O)[C@H](OS(=O)(=O)O)[C@H]4OS(=O)(=O)O)[C@H](OS(=O)(=O)O)[C@H]3OS(=O)(=O)O)c2)[C@H](OS(=O)(=O)O)[C@@H](OS(=O)(=O)O)[C@@H]1O[C@H]1O[C@H](COS(=O)(=O)O)[C@@H](OS(=O)(=O)O)[C@H](OS(=O)(=O)O)[C@H]1OS(=O)(=O)O [1,3-Bis-[4-O-α-D-glucopyranosyl-β-D-glucopyranosyl-1-thio]-phenylene, tetradecakis(H-sulfate),tetradecasodium salt]	12	0.9	
O=S(=O)(O)OC[C@H]1O[C@@H](Sc2ccc(-c3ccc(S[C@@H]4O[C@H](COS(=O)(=O)O)[C@@H](O[C@H]5O[C@H](COS(=O)(=O)O)[C@@H](OS(=O)(=O)O)[C@H](OS(=O)(=O)O)[C@H]5OS(=O)(=O)O)[C@H](OS(=O)(=O)O)[C@H]4OS(=O)(=O)O)cc3)cc2)[C@H](OS(=O)(=O)O)[C@@H](OS(=O)(=O)O)[C@@H]1O[C@H]1O[C@H](COS(=O)(=O)O)[C@@H](OS(=O)(=O)O)[C@H](OS(=O)(=O)O)[C@H]1OS(=O)(=O)O [4,4'-Bis-[4-O-α-D-glucopyranosyl-β-D-glucopyranosyl-1-thio]-1,1'-biphenylene, tetradecakis(H-sulfate), tetradecasodium salt]	13	2	
pentosanpolysulfoester			anticomplementary activity
